For `O=S(=O)(Nc1ncnc(Cl)c1-c1ccc(OCc2ccccc2)cc1)c1ccc(Cl)cc1`, the melting point was in the range of 234 to 236 °C.
Take `CCCCc1ncc(/C=C(\Cc2cccs2)C(=O)O)n1Cc1ccc(OCC(=O)O)cc1`: the melting point is 192 to 194 °C.
For `CNC(=O)NC1=NC(=CCC(=O)Nc2ccc(Cl)cc2)CS1`, the melting point was in the range of 203 to 205 °C.
For `NC1CCCCC1N1CCC(Cc2ccc(Cl)cc2)CC1` (stereo not given) the value was 69.1 to 70.4 °C.
The figure for `O=S(=O)(c1ccc(Cl)cc1)N1CCCC1c1cccs1` (racemic) is 84 °C; for `COc1ccc(OC)c(-c2nc3ncccc3[nH]2)c1` it is 235 °C.
For `Cc1cccc2c1nc(COc1ccc(Cl)cc1)n2CCC(C)C(=O)Cl` (stereo not given) the value was 140 to 142 °C; for `CCOCc1nc2c(N)nc(C)c(C)c2n1CCCCS(N)(=O)=O`, 200 to 202 °C.
Compound `COC(=O)c1nc(O)ccc1OCc1ccccc1` came in with a melting point of 91 to 92 °C.
The figure for `CCCCCCCCCCCCSc1nnn(C(C(N)=O)(c2ccccc2)c2c(C(C)C)cccc2C(C)C)n1` (stereo not given) is 102 to 105 °C; for `Cc1cn(C(C(=O)N(C)C)c2ccccc2)nc1-c1ccccc1` (stereo not given) it is 136 to 138 °C; for `O=C1N(Cc2ncon2)c2ccccc2C12COc1cc3c(cc12)OCO3` (stereo not given) it is 160 to 162 °C.
The figure for `O=C1C(=Cc2ccco2)CCc2cc(OCCc3c[nH]cn3)ccc21` is 57 to 60 °C; for `CC(C)(C)OC(=O)C(Br)c1ccc(Cl)c(Cl)c1` (racemic) it is 88 °C.
The figure for `CC(=O)NC1(c2ccc(C(C)=O)cc2)CC1` is 128 to 131 °C; for `COc1cc(N)c(Cl)cc1C(=O)N[C@H]1CCNC[C@H]1OC` (relative stereo) it is 184 °C; for `COC(=O)c1ccc(/C=C(\C)c2ccc3c(c2)SCCCN3C)cc1` it is 97 to 98 °C.
The compound `CC(C)(C)c1ccccc1-n1c(=O)[nH]c2c(C(N)=O)nc(-c3cccc(O)c3)nc21` gave a melting point of 294 to 297 °C.
The figure for `NCC1CCN(CC(=O)Nc2cccc3c2C(=O)c2c-3n[nH]c2-c2ccc(N3CCOCC3)cc2)CC1` is 240 °C.
For `CCC(CC)c1ccc(Cl)c2nc3n(c12)CCCCN3c1ccc(OC)nc1OC` the value was 85 to 88 °C; for `CCCCCCCCCCCCOc1ccc(C#N)cc1-c1cc(C#N)ccc1OCCCCCCCCCCCC`, 168 to 170 °C.
`Cc1cc(Cl)ccc1NC(=O)c1cccc([N+](=O)[O-])c1C(=O)NC(C)C` had a melting point of 202 to 204 °C.
For `CCn1c(=O)c2[nH]c(/C=C/c3cc(OC)cc(OC)c3)nc2n(CC)c1=O` the value was more than 270 °C; for `CN1CCCC1c1ccc(Nc2cc(Br)cn(C)c2=O)nc1` (stereo not given), 143 to 145 °C; for `C#CCN1C(=O)CC(c2ccccc2)N=C1c1ccccc1` (stereo not given), 74.5 to 77 °C.
The figure for `NC(=S)NN=C(CCCOC(=O)Nc1cccc2ccccc12)c1ccccc1` is 189 to 192 °C.
The figure for `CNC(=O)COc1cc(OC)ccc1O` is 136 to 138 °C.
As for `NC1=NC(=O)N(C2CCCCC2)CC1Br` (stereo not given), the melting point was in the range of 152 to 156 °C.
The figure for `CCN(CC)CCOc1ccc(Nc2ncc3c(n2)N(C)C(=O)N(c2ccccc2Br)C3)cc1` is 144 °C; for `CS(=O)(=O)c1nccc(Cl)n1` it is 91 to 93 °C.
The figure for `Cn1nc(Cl)cc(Br)c1=O` is 107 to 108 °C; for `COc1ccc(Cn2c(=O)c3cccnc3n(CCCCBr)c2=O)cc1` it is 80 to 82 °C.
The figure for `Cc1c(C(=O)c2cccnc2)sc2cc(Br)ccc12` is 110 to 111 °C; for `COc1cc(C=C(C)[N+](=O)[O-])cc2c1OC(C)(C)C2` it is 120 to 121 °C.
Compound `Cc1cc(O)c(S(=O)(=O)C(C)(C)C)c(=O)o1` registered a melting point of 119 to 120 °C.
Regarding `O=C(O)c1ccc2c(Br)cccc2c1`, the melting point lay within 248 to 250 °C.
For the compound `CC(C)OC(=O)c1cc(-c2ccncc2)sc1-c1ccncc1`, the melting point lay in the range of 139 to 142 °C.
As for `CCN1CCc2cc3ccccc3n2CC1`, the melting point lay within 44 to 46 °C.
Consider `CNC(=O)CN(C)Cc1ccc(CCn2cnc3cc(-c4ccc(Cl)cc4)sc3c2=O)cc1`, for which the melting point fell in the range of 146 to 149 °C.
The figure for `CC(=O)Nc1cccc(C#Cc2ccc(OC3CN4CCC3CC4)nn2)c1` (stereo not given) is 132 to 134 °C.
As to `COc1cc(COc2nn(-c3ccccc3)cc2/C=C/c2nc(C)cs2)ccc1OCc1nc(-c2ccco2)oc1C`, the melting point fell in the range of 130 to 131 °C.
For `O=Ic1ccc(Cl)cc1[N+](=O)[O-]` the value was 118 °C.
The figure for `CCCCCCCCCCCCOC(=O)NS(=O)(=O)Nc1c(OC)cc(OC)cc1OC` is 133 to 136 °C; for `CC(C)c1ccc2[nH]c(C(=O)c3ccc(Cl)cc3)c(CC(=O)O)c2c1` it is 197 to 200 °C; for `C=Cc1ccc(C(=O)OC)[nH]1` it is 91 to 93 °C.
The figure for `O=C1CCCN(C(=O)c2ccc([N+](=O)[O-])cc2Cl)c2ccccc21` is 140 to 143 °C; for `O=c1cc(-c2ccccc2F)oc(N2CCOCC2)c1` it is 137 to 138 °C.
Regarding `OCCOCc1csc2ccccc12`, the melting point lay within 149 to 150 °C.
The figure for `OCc1ccc(I)c(Cl)c1` is 80 to 82 °C.
For `O=C(O)c1ccc2c(c1)C(=O)c1cc(C(=O)O)ccc1S2(=O)=O` the value was 372 to 375 °C.
`CCCC(CCC)N1Cc2c(C(=O)OC)cc(NS(C)(=O)=O)cc2C1=O` registered a melting point of 173 °C.
Compound `CC(C)(C)OCC1CN(c2ccc3cc(OCc4ccccc4)ccc3c2)C(=O)O1` (stereo not given) gave a melting point of 152 °C.
In turn, `O=C(c1cc(N2CCC3(CC2)OCCO3)ccn1)N(O)Cc1ccccc1` returned a melting point of 98 to 102 °C.
Turning to `NS(=O)(=O)c1c(Cl)nc2ccc(C3CC3)nn12`, the melting point lay in the range of 194 to 196 °C.
On to `Nc1c([N+](=O)[O-])sc2ccc([N+](=O)[O-])cc12`, for which the melting point lay in the range of 288 to 291 °C.
For `O=C(Nc1ccc(-n2nc(C(F)(F)F)cc2C(F)(F)F)cc1)c1cccs1` the value was more than 230 °C; for `CC(=O)Oc1cccc2c1NC(O)C1CCCN1C2=O` (stereo not given), 143 to 145 °C; for `COC(=O)CCc1cn(Cc2ccc(C(=O)OC(C)(C)C)cc2OC)c2cc(C(=O)NCC3CCCC3)ccc12`, 58 to 60 °C.
`O=C1Nc2c(ccc3ccccc23)SC1c1ccc(Cl)cc1` (stereo not given) returned a melting point of 236 to 238 °C.
Turning to `O=C(NCCN1CCCC1)Nc1ccc(-c2cnc(COCc3cc4ccccc4o3)o2)cc1`, the melting point lay within 124 to 126 °C.
The compound `CCSc1cc2c(cc1F)C(=O)C(=O)N2` came in with a melting point of 215 °C.
For `CC(C)n1nc(-c2sc(Nc3cccc4ccccc34)nc2-c2ccccc2)ccc1=O`, the melting point is 239 to 240 °C.
For `NC(=O)c1csc(C2OC(CO)C(O)C2O)n1` (stereo not given) the value was 142 to 144 °C; for `O=C(O)CSONC(=O)c1c(Cl)ccc2cc(Cl)cnc12`, 174 °C; for `O=C1CCC(c2ccc(CO)cc2)CC1`, 58 to 60 °C.
For `O=c1ccn(-c2ccc3c(c2)Cc2cc(=O)[nH]nc2-3)cc1` the value was more than 300 °C; for `CCCCCCCCCCCCCCCCOCC(COP(=O)(O)O)OCCCCCCCCCCCCCCCC` (stereo not given), 157 to 159 °C; for `Cc1c(/C=C/C(=O)c2cn(C)c3ccccc23)ncn1C(c1ccccc1)(c1ccccc1)c1ccccc1`, 216 to 219 °C.
For `CCc1nc(-c2cccc(C)c2)c(-c2ccnc(NC3CCCC3)c2)s1` the value was 117 to 118 °C; for `COc1ccc(C(O)CNC(C)CCc2ccccc2)cc1C(N)=O` (stereo not given), 110 to 148 °C.
With `CC1(C)CCC(C)(C)c2c(O)cc(Br)cc21`, the melting point is 93 °C.
As for `OCCC(c1ccccc1)C(O)(c1ccccc1)c1ccc(OCc2ccccc2)cc1` (stereo not given), the melting point was 109 to 115 °C.
As to `CCOC(=O)C1=C(C)NC(C)=C(C(=O)OCC)C1c1ccccc1/C=C/C(=O)OC(CC(C)C)CC(C)C`, the melting point was in the range of 49 to 52 °C.
For `O=C1Nc2ccc(NC(=O)C(=O)N3CCC(Cc4ccc(F)cc4)CC3)cc2C1=O` the value was 205 to 206 °C; for `COc1ccc2c(c1)C(Cl)CC1C2C(O)CC2(C)C(O)CCC12` (stereo not given), 150 to 151 °C.
The compound `CCn1nc(C(=O)OC)cc1C` came in with a melting point of 165 to 168 °C.
For `Cc1cccc(-n2cc(CC(=O)O)c(-c3ccc(Cl)cc3)n2)c1` the value was 129 to 130 °C.
The figure for `CCCc1c2c(c(O)c3c(=O)cc(C(=O)OCC)oc13)CCCC2` is 136 to 138 °C; for `O=C(Nc1ccccc1)C(Br)(Br)Br` it is 97 to 98 °C; for `Cc1cc(-c2ccc(OC(F)(F)F)cc2)cc(-c2cccc(-c3cccc(S(=O)(=O)NC(C)(C)C)c3)n2)n1` it is 148 °C.
The figure for `COc1cc2onc(C3CCN(CCCn4c(=O)[nH]c5ccccc54)CC3)c2cc1OC` is 147 to 149 °C; for `CCCC1CCC2c3ccc(OCC)c(F)c3OC2C1` (stereo not given) it is 128 °C.
Take `CN(CC1CC=CCC1)c1ncnc2c1ncn2C1OC(CO)C(O)C1O` (stereo not given): the melting point fell in the range of 154 to 156 °C.
The figure for `O=C(O)CCSC1c2cc(OCc3ccc4ccc(Cl)cc4n3)ccc2OCc2c(-c3nnn[nH]3)cccc21` (stereo not given) is 122 to 125 °C.
For the compound `COc1nc2ccccc2cc1NC(=S)N1CCN(c2cc(F)cc(F)c2)CC1`, the melting point was 140 to 142 °C.
`Cc1cc2c(cc1O)C(C)(C)CC2` returned a melting point of 70 to 71 °C.
For `O=C1c2ccccc2C(=O)N1CC(O)Cn1ccnc1[N+](=O)[O-]` (stereo not given), the melting point was 213 to 214 °C.
For `CC1=C2CCc3cc(Cl)ccc3N2CCC1=O` the value was 112 to 114 °C.
Compound `Cc1ccccc1C(=O)CN1C(=O)C(NC(=O)Nc2cccc(C(=O)NO)c2)CN(C(=O)C(C)(C)C)c2ccccc21` (stereo not given) returned a melting point of 192 to 196 °C.
The figure for `O=C1C(=O)N(CCCN2CCN(C3c4ccccc4CCc4ccccc43)CC2)c2ccccc21` is 159 to 162 °C.

The values are drawn from a melting point compilation (Tetko et al.; mined from patent text by program, amines drawn as free bases though some values may be those of a salt).
